# What was measured:
# [1] = Binding affinity to KIF18A- MT complex (unknown origin) by NMR based assay; set-up: species or system Homo sapiens
# Tubulin = test: Binding affinity to microtubule (unknown origin) by NMR based assay; assay type: protein-complex assay, Homo sapiens
# [2] = target: T1, Kinesin-like protein KIF18A (Homo sapiens, UniProt Q8NI77); test: Binding affinity to KIF18A (unknown origin) by NMR based assay
# T1 sequence (Q8NI77 whole entry): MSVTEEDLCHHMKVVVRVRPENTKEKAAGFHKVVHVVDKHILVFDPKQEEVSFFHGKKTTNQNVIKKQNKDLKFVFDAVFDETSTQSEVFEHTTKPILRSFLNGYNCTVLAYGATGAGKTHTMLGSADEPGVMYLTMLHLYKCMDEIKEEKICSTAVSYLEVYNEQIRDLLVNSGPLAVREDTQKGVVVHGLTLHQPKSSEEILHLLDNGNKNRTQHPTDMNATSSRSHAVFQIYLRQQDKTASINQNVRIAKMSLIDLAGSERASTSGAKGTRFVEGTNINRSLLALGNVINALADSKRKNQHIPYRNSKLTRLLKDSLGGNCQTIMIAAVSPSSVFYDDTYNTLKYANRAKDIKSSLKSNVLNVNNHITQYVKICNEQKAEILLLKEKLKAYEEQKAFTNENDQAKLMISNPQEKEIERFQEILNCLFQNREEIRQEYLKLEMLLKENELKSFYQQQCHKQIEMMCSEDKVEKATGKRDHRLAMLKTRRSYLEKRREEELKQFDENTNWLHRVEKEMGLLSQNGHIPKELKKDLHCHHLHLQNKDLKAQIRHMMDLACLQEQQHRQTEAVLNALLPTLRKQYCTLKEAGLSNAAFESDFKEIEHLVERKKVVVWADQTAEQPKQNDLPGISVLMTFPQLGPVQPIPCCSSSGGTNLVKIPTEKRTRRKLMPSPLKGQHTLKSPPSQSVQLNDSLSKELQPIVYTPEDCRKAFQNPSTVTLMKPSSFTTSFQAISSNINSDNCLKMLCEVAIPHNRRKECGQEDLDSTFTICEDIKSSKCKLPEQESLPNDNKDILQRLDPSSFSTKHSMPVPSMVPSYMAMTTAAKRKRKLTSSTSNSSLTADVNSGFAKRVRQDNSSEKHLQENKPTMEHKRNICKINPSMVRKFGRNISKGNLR
# [3] = target: T1, Kinesin-like protein KIF18A; test: Inhibition of KIF18A ATPase activity (unknown origin)
# [4] = target: T1, Kinesin-like protein KIF18A; test: Inhibition of recombinant His-tagged human KIF18A (1 to 467 residues) expressed in Trichoplusia ni insect cells assessed as inhibition of microtubule-stimulated ATPase activity preincubated for 30 mins followed by ATP addition and further incubated for 15 mins by ADP-Glo reagent based assay; set-up: species or system Insect cell
# OVCAR-3 [5] = test: Antiproliferative activity against human OVCAR-3 cells by nuclear count assay; assay type: functional, cell-based
# [6] = Cmax in CD-1 mouse xenografted with human OVCAR-3 cells at 100 mg/kg, ip by LC-MS/MS analysis; assay type: ADME, organism-based; set-up: dose 100 mg/kg, route ip; details: in vivo
# [7] = Metabolic stability in mouse liver microsomes assessed as intrinsic clearance at 0.5 uM incubated upto 40 mins by LCMS analysis; assay type: ADME, Microsome; details: read-out: CLH
# [8] = Plasma concentration in CD-1 mouse xenografted with human OVCAR-3 cells at 100 mg/kg, ip measured upto 24 hrs by LC-MS/MS analysis; assay type: ADME, organism-based
# [9] = Unbound fraction in CD-1 mouse plasma xenografted with human OVCAR-3 cells at 100 mg/kg, ip by LC-MS/MS analysis; assay type: ADME, organism-based
# OVCAR-3 [10] = test: Induction of mitotic arrest in human OVCAR-3 cells assessed as p-histone H3 incubated for 24 hrs by mitotic - imaging assay; assay type: functional, cell-based; details: OVCAR-3, 24 h
# [11] = Metabolic stability in human liver microsomes assessed as intrinsic clearance at 0.5 uM incubated upto 40 mins by LCMS analysis; assay type: ADME, Microsome; details: read-out: CLH
# [12] = AUC (0 to 24 hrs) in CD-1 mouse xenografted with human OVCAR-3 cells at 100 mg/kg, ip by LC-MS/MS analysis; assay type: ADME, organism-based; set-up: dose 100 mg/kg, route ip; details: in vivo
# OVCAR-3 [13] = test: Antimitotic activity in human OVCAR-3 cells xenografted in CD-1 mouse assessed as fold increase in mitotic cells in tumor at 100 mg/kg, po measured after 24 hrs relative to control; assay type: functional
# [14] = Drug metabolism in mouse liver microsomes assessed as di-hydroxylate metabolite formation in presence of NADPH by LC-MS/MS analysis; assay type: ADME, Microsome
# [15] = Drug metabolism in mouse liver microsomes assessed as mono-hyoxylate metabolite formation in presence of NADPH by LC-MS/MS analysis; assay type: ADME, Microsome
IC50 [4] [µM],EC50 (OVCAR-3 [5]) [µM],microsomal CLint at 0.5 µM [7] [µL/min/mg],EC50 (OVCAR-3 [10]) [µM],microsomal CLint at 0.5 µM [11] [µL/min/mg],Compound,other results
0.09,–,–,–,–,C[C@H](NS(=O)(=O)c1cccc(NC(=O)c2ccc(NC(CO)CO)nc2N2CCC3(CC2)CC3)c1)C(F)(F)F,Kd [1]: 0.15 µM; Kd (Tubulin): 25 µM; Kd [2]: > 50 µM; IC50 [3]: 32 µM
0.028,0.016,81,0.016,79,CC(C)(C)NS(=O)(=O)c1cccc(NC(=O)c2ccc(NS(C)(=O)=O)cc2N2CCC3(CC2)CC3)c1,Cmax [6]: 12.6 µM; concentration at 24 h [8]: 2.9 µM; fraction unbound [9]: 0.007; AUC(0-t) [12]: 147 µM·h
–,–,–,–,–,CC[C@@H]1C(=O)N(C)c2cnc(Nc3ccc(C(=O)NC4CCN(C)CC4)cc3OC)nc2N1C1CCCC1 [BI-2536],fold change (FC) (OVCAR-3 [13]): >3
0.41,1.24,> 399,1.87,> 399,O=C(Nc1cccc(S(=O)(=O)C2CCCC2)c1)c1cccnc1N1CCC2(CC1)CC2,Drug metabolism [14]: Metabolite_Detected; Drug metabolism [15]: Metabolite_Detected

# Reference: ChEMBL document CHEMBL5223091, “Targeting the Mitotic Kinesin KIF18A in Chromosomally Unstable Cancers: Hit Optimization Toward an In Vivo Chemical Probe” (J Med Chem, 2022)
